Source: US9669034B2, “4-aryl-N-phenyl-1,3,5-triazin-2-amines containing a sulfoximine group” (BAYER INTELLECTUAL PROPERTY GMBH, priority 2011, dated 2017)

How the values were obtained:
[1] = test system: NCI-H460, human non-small cell lung carcinoma cells; assay: Proliferation assay (crystal violet), NCI-H460; format: cell-based; settings: Homo sapiens, NCI-H460, NCI-H460 cells, Method 3; read-out: Inhibition of NCI-H460 cell proliferation, IC50
Method: (§1) Cultivated tumour cells (NCI-H460, human non-small cell lung carcinoma cells, ATCC HTB-177; DU145, hormone-independent human prostate carcinoma cells, ATCC HTB-81; HeLa-MaTu, human cervical carcinoma cells, EPO-GmbH, Berlin; HeLa-MaTu-ADR, multidrug-resistant human cervical carcinoma cells, EPO-GmbH, Berlin; HeLa human cervical tumour cells, ATCC CCL-2; Caco-2 human colorectal carcinoma, ATCC HTB-37; B16F10 mouse melanoma cells, ATCC CRL-6475) were plated at a density of 5000 cells/well (DU145, HeLa-MaTu-ADR), 3000 cells/well (NCI-H460, HeLa-MaTu, HeLa), 1500 cells/well (Caco-2), or 1000 cells/well (B16 F10) in a 96-well multititer plate in 200 μL of their respective growth medium supplemented 10% fetal calf serum. After 24 hours, the cells of one plate (zero-point plate) were stained with crystal violet (see below), while the medium of the other plates was replaced by fresh culture medium (200 μL), to which the test substances were added in various concentrations (0 M, as well as in the range of […]; the final concentration of the solvent dimethylsulfoxide was 0.5%). The cells were incubated for 4 days in the presence of test substances. Cell proliferation was determined by staining the cells with crystal violet: the cells were fixed by adding 20 μL/measuring point of an 11% glutaric aldehyde solution for 15 minutes at room temperature. After three washing cycles of the fixed cells with water, the plates were dried at room temperature. The cells were stained by adding 100 μL/measuring point of a 0.1% crystal violet solution (pH 3.0). After three washing cycles of the stained cells with water, the plates were dried at room temperature. The dye was dissolved by adding 100 μL/measuring point of a 10% acetic acid solution. The absorbance was determined by photometry at a wavelength of 595 nm. The change of cell number, in percent, was calculated by normalization of the measured values to the absorbance values of the zero-point plate (=0%) and the absorbance of the untreated (0 M) cells (=100%). The IC50 values were determined by means of a 4 parameter fit.

[2] = test system: HeLa human cervical tumour cells; assay: Proliferation assay (crystal violet), HeLa; format: cell-based; settings: Homo sapiens, HeLa, Method 3, read-out: Inhibition of HeLa cell proliferation, IC50
Method: as §1

[3] = test system: HeLa-MaTu-ADR, multidrug-resistant human cervical carcinoma cells; assay: Proliferation assay (crystal violet), HeLa-MaTu-ADR; format: cell-based; settings: Homo sapiens, HeLa, Method 3, read-out: Inhibition of HeLa/MaTu/ADR cell proliferation, IC50
Method: as §1

CDK9/CycT1 = CDK9/CycT1 (Homo sapiens (Human), UniProt P50750); assay: CDK9/CycT1 kinase assay (TR-FRET); format: biochemical; settings: Method 1
Summary of the method: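 TR-FRET read-out of kinase inhibition, with a biotin-Ttds-tagged peptide as substrate. Enzyme: human CDK9 and CycT1, full-length with His tags, produced in insect cells and purified on Ni-NTA.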

[4] = test system: DU145, hormone-independent human prostate carcinoma cells; assay: Proliferation assay (crystal violet), DU145; format: cell-based; settings: Homo sapiens, DU-145, DU145 cells, Method 3; read-out: Inhibition of DU145 cell proliferation, IC50
Method: as §1

[5] = test system: Caco-2 human colorectal carcinoma; assay: Proliferation assay (crystal violet), Caco-2; format: cell-based; settings: Homo sapiens, Caco-2, Caco-2 cells, Method 3; read-out: Inhibition of Caco-2 cell proliferation, IC50
Method: as §1

CDK2/CycE = CDK2/CycE (Homo sapiens (Human), UniProt P24941); assay: CDK2/CycE kinase assay (TR-FRET); format: biochemical; settings: Method 2
Summary of the method: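 TR-FRET measurement of inhibition of phosphorylation of a biotinylated peptide substrate. Enzyme complex consisted of human CDK2 and CycE, each as a GST fusion made in Sf9 cells and purified over glutathione-Sepharose.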

[6] = test system: B16F10 mouse melanoma cells; assay: Proliferation assay (crystal violet), B16F10; format: cell-based; settings: Mus musculus, B16-F10, B16F10 cells, Method 3; read-out: Inhibition of B16F10 cell proliferation, IC50
Method: as §1

CDK9/CycT1, sequence (P50750 whole entry): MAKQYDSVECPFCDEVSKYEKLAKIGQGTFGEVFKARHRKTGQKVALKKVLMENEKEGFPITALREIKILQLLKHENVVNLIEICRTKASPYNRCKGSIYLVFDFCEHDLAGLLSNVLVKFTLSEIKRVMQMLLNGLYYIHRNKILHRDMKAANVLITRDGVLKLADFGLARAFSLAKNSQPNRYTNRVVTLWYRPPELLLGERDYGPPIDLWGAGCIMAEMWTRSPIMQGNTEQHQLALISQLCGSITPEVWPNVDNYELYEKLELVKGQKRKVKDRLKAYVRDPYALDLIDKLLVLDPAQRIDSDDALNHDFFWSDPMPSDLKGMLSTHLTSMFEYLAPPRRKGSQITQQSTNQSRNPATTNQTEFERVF
CDK9/CycT1, sequence (O60563 whole entry partner): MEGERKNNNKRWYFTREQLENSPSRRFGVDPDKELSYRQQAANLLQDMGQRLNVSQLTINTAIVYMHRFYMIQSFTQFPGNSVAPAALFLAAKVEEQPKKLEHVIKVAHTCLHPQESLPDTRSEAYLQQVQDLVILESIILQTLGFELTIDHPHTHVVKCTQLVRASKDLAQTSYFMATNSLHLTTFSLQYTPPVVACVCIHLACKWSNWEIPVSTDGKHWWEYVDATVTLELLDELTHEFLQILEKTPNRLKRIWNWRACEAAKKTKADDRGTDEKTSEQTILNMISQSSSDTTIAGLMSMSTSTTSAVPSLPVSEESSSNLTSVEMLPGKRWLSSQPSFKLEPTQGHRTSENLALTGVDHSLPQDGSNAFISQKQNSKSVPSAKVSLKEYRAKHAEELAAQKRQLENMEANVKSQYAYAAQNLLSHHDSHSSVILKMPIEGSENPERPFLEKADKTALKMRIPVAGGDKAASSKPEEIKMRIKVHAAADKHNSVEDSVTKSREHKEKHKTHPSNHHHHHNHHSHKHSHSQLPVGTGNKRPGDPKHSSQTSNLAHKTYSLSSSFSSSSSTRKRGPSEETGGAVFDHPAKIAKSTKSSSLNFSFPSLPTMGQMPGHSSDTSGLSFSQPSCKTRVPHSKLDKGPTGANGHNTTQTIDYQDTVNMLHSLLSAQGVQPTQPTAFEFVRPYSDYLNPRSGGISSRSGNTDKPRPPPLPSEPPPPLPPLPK

SMILES	IC50 [1] [µM]	IC50 [2] [µM]	IC50 [3] [µM]	IC50 (CDK9/CycT1) [µM]	IC50 [4] [µM]	IC50 [5] [µM]	IC50 (CDK2/CycE) [µM]	IC50 [6] [µM]
CCOC(=O)N=S(C)(=O)Cc1cccc(Nc2ncnc(-c3cccc4c3OCCO4)n2)c1 (racemic) [Example 37, (rac)-Ethyl [(3-{[4-(2,3-dihydro-1,4-benzodioxin-5-yl)-1,3,5-triazin-2-yl]amino}benzyl)(methyl)oxido-λ^6-sulfanylidene]carbamate]	0.92	0.63	0.75	0.009	0.5	0.81	2.3	0.72
CCOC(=O)N=S(C)(=O)Cc1cccc(Nc2ncnc(-c3ccccc3OCc3ccc(F)cc3)n2)c1 (racemic) [Example 42, (rac)-Ethyl [{3-[(4-{2-[(4-fluorobenzyl)oxy]phenyl}-1,3,5-triazin-2-yl)amino]benzyl}(methyl)oxido-λ^6-sulfanylidene]carbamate]	0.37	0.61	0.52	0.005	0.59	0.68	1.6	0.68
CS(=N)(=O)Cc1cccc(Nc2ncnc(-c3ccccc3OCc3ccc(F)cc3)n2)c1 (racemic) [Example 43, (rac)-4-{2-[(4-Fluorobenzyl)oxy]phenyl}-N-{3-[(S-methylsulfonimidoyl)methyl]phenyl}-1,3,5-triazin-2-amine]	0.53	0.59	1.1	0.009	0.8	1.1	1.9	0.8
COc1cc(F)ccc1-c1ncnc(Nc2cccc(CS(C)(=O)=NC#N)c2)n1 (racemic) [Example 48, (rac)-[(3-{[4-(4-fluoro-2-methoxyphenyl)-1,3,5-triazin-2-yl]amino}benzyl)(methyl)oxido-λ^6-sulfanylidene]cyanamide]	0.41	0.33	0.4	0.013	0.28	0.42	0.63	0.32
CS(=N)(=O)Cc1cccc(Nc2ncnc(-c3ccc(F)cc3OCc3ccc(F)cc3)n2)c1 (racemic) [Example 56, (rac)-4-{4-Fluoro-2-[(4-fluorobenzyl)oxy]phenyl}-N-{3-[(S-methylsulfonimidoyl)methyl]phenyl}-1,3,5-triazin-2-amine]	0.35	0.37	0.78	0.006	0.37	0.86	0.41	0.47
COc1cc(F)ccc1-c1ncnc(Nc2cc(Cl)cc(CS(C)(=N)=O)c2)n1 (racemic) [Example 64, (rac)-N-{3-Chloro-5-[(S-methylsulfonimidoyl)methyl]phenyl}-4-(4-fluoro-2-methoxyphenyl)-1,3,5-triazin-2-amine]	0.36	0.4	0.28	0.015	0.29	0.35	0.25	0.32
CS(=N)(=O)Cc1cccc(Nc2ncnc(-c3ccc(F)cc3OCc3ccncc3)n2)c1 (racemic) [Example 68, (rac)-4-[4-Fluoro-2-(pyridin-4-ylmethoxy)phenyl]-N-{3-[(S-methylsulfonimidoyl)methyl]phenyl}-1,3,5-triazin-2-amine]	1.1	0.41	3	0.014	0.46	1.3	1.5	0.74
COc1cc(F)ccc1-c1ncnc(Nc2cc(F)cc(CS(C)(=O)=NC#N)c2)n1 (racemic) [Example 70, (rac)-[(3-Fluoro-5-{[4-(4-fluoro-2-methoxyphenyl)-1,3,5-triazin-2-yl]amino}benzyl)(methyl)oxido-λ^6-sulfanylidene]cyanamide]	0.23	0.15	0.12	0.006	0.079	0.17	0.18	0.13
CS(=N)(=O)Cc1cccc(Nc2ncnc(-c3ccc(F)cc3OCc3ccnc(F)c3)n2)c1 (racemic) [Example 82, (rac)-4-{4-Fluoro-2-[(2-fluoropyridin-4-yl)methoxy]phenyl}-N-{3-[(S-methylsulfonimidoyl)methyl]phenyl}-1,3,5-triazin-2-amine]	0.18	0.18	0.19	0.007	0.13	0.18	0.36	0.15
C=CCOc1cc(F)ccc1-c1ncnc(Nc2cccc(CS(C)(=N)=O)c2)n1 (racemic) [Example 85, (rac)-4-[4-Fluoro-2-(prop-2-en-1-yloxy)phenyl]-N-{3-[(S-methylsulfonimidoyl)methyl]phenyl}-1,3,5-triazin-2-amine]	0.23	0.33	0.56	0.009	0.19	0.051	0.38	0.28
CS(=N)(=O)Cc1cccc(Nc2ncnc(-c3ccc(F)cc3OCc3ccc(Cl)cc3)n2)c1 (racemic) [Example 87, (rac)-4-{2-[(4-Chlorobenzyl)oxy]-4-fluorophenyl}-N-{3-[(S-methylsulfonimidoyl)methyl]phenyl}-1,3,5-triazin-2-amine]	0.57	0.56	0.45	0.003	0.61	0.8	0.68	0.59
CS(=N)(=O)Cc1cccc(Nc2ncnc(-c3ccc(F)cc3OCc3cc(F)cc(C(F)(F)F)c3)n2)c1 (racemic) [Example 89, (rac)-4-(4-Fluoro-2-{[3-fluoro-5-(trifluoromethyl)benzyl]oxy}phenyl)-N-{3-[(S-methylsulfonimidoyl)methyl]phenyl}-1,3,5-triazin-2-amine]	0.37	0.47	0.45	0.004	0.42	0.52	0.28	0.47
CS(=N)(=O)Cc1cccc(Nc2ncnc(-c3ccc(F)cc3OCc3cccc(F)c3)n2)c1 (racemic) [Example 90, (rac)-4-{4-Fluoro-2-[(3-fluorobenzyl)oxy]phenyl}-N-{3-[(S-methylsulfonimidoyl)methyl]phenyl}-1,3,5-triazin-2-amine]	0.11	0.17	0.1	0.002	0.11	0.08	0.26	0.1
CS(=N)(=O)Cc1cccc(Nc2ncnc(-c3ccc(F)cc3OCc3cccc(Cl)c3)n2)c1 (racemic) [Example 92, (rac)-4-{2-[(3-Chlorobenzyl)oxy]-4-fluorophenyl}-N-{3-[(S-methylsulfonimidoyl)methyl]phenyl}-1,3,5-triazin-2-amine]	0.17	0.47	0.36	0.004	0.38	0.43	0.25	0.39
CS(=N)(=O)Cc1cccc(Nc2ncnc(-c3ccc(F)cc3OCc3cc(F)cc(Cl)c3)n2)c1 (racemic) [Example 94, (rac)-4-{2-[(3-Chloro-5-fluorobenzyl)oxy]-4-fluorophenyl}-N-{3-[(S-methylsulfonimidoyl)methyl]phenyl}-1,3,5-triazin-2-amine]	0.2	0.11	0.19	0.003	0.14	0.22	0.23	0.18
